The record followed here is PMC6378217, “The lysyl oxidase like 2/3 enzymatic inhibitor, PXS‐5153A, reduces crosslinks and ameliorates fibrosis” (Journal of Cellular and Molecular Medicine, 2018).

The target of one experiment is Dopamine D2S (Homo sapiens, UniProt P14416). Put plainly: Eurofins Hit Profiling Screen. The experiment is classed as binding. Particulars: 10 μmol/L.
In another experiment the test system is Myocardial infarction. The experiment in a line: Myocardial infarction (left coronary artery occlusion). The format is in vivo, C57/BL6 mice. The following applies: 25 mg/kg q.d., p.o., 4 weeks; compared to infarcted untreated animals. How it is done:
The study was performed by CL Laboratory (Baltimore, USA) with approval from the Institutional Animal Care and Use Committee. Myocardial infarction (MI) was induced in C57/BL6 mice by occluding the left coronary artery. The same surgery but without occluding the left coronary artery was used as a sham control. At 24 hours post‐surgery, animals received echocardiography. Infarcted mice with high cardiac function (FS > 40%) or low cardiac function (FS < 10%) were excluded from the study. The remaining mice were treated q.d., p.o., with 25 mg/kg of PXS‐5153A for 4 weeks. At the end of the experiment, echocardiography was performed on mice to assess left ventricular function and remodelling, followed by heart collection. The heart was fixed with 10% formalin. Fibrosis was assessed in the non‐infarct area. Fibrotic blue area and whole non‐infarct area were measured using computerized planimetry (Image J). The fibrotic area was presented as a percentage of the whole non‐infarct area. Three random fields per heart were counted, averaged and a total of 30‐45 fields per group were measured.

The target of a further experiment is Opiate μ (OP3, MOP) (Homo sapiens, UniProt P35372). Put plainly: Eurofins Hit Profiling Screen. The format is binding. The following applies: 10 μmol/L.
Opiate μ (OP3, MOP), sequence (P35372 whole entry): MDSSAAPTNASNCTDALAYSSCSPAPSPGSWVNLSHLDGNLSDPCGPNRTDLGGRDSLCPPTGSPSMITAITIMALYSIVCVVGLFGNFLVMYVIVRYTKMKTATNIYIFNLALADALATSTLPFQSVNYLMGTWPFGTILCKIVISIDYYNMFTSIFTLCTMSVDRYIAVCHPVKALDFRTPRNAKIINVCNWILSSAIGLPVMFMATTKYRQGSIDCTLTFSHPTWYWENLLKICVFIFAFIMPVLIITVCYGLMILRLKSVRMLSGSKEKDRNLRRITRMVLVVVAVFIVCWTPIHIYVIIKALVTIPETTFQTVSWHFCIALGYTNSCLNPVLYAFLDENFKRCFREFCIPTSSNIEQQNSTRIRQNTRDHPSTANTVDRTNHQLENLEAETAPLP
Another experiment deals with Rolipram. Put plainly: Eurofins Hit Profiling Screen. The experiment is classed as binding. Particulars: 10 μmol/L.

Dopamine D2S, sequence (P14416 1-414 isoform P14416-2): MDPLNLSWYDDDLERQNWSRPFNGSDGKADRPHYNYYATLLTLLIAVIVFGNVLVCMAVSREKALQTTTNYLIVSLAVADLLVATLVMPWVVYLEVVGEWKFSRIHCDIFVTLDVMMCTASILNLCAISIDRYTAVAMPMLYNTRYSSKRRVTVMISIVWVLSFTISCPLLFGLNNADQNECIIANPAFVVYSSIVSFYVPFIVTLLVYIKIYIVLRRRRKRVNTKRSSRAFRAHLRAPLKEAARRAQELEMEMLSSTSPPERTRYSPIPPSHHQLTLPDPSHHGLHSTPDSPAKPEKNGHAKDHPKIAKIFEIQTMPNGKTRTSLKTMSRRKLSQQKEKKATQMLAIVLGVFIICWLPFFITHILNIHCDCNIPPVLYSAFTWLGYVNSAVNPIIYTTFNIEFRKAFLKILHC

In the case of `Cc1c(-c2cccc(S(=O)(=O)N(C)C)c2)c2ncccc2n1C/C(F)=C/CN.Cl.Cl` [PXS-5153A], the “% inhibition” value at Dopamine D2S was 10%. In the experiment on Myocardial infarction, the “ejection fraction” value was “improvement”, the “fractional shortening” value is reported as “improvement” and the “percentage fibrotic coverage area” value is listed as “decrease”. Also, the “% inhibition” value on Opiate μ (OP3, MOP) is on record as 11%. Moreover, the “% inhibition” value with Rolipram is 28%.

The % inhibition is the percentage by which the read-out fell short of the control.
